Where two headings read alike, the source gives them in different places.
Tests used:
[1] = cited from earlier work
[2] = molecular target: T1, Recombinant PKCζ (Homo sapiens, UniProt Q05513); conditions: cited from earlier work
T1 sequence (Q05513 1-592): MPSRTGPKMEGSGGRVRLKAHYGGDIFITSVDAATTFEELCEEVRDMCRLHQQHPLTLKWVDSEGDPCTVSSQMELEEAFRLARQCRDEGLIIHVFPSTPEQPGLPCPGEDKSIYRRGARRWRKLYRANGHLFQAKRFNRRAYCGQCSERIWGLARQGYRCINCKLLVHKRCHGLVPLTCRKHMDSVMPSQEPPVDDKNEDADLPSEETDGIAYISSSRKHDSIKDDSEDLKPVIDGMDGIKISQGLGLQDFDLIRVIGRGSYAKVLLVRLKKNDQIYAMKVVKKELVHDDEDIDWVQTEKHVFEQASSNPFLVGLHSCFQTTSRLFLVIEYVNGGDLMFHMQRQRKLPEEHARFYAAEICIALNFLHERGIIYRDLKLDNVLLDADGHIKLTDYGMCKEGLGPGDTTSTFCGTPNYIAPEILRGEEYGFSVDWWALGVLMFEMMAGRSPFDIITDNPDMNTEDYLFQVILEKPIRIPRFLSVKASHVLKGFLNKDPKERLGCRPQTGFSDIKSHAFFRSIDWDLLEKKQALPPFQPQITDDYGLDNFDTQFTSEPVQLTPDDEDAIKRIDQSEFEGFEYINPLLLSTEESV

[3] = molecular target: T2, PDK1 (Homo sapiens, UniProt O15530); conditions: cited from earlier work
T2 sequence (O15530 1-556): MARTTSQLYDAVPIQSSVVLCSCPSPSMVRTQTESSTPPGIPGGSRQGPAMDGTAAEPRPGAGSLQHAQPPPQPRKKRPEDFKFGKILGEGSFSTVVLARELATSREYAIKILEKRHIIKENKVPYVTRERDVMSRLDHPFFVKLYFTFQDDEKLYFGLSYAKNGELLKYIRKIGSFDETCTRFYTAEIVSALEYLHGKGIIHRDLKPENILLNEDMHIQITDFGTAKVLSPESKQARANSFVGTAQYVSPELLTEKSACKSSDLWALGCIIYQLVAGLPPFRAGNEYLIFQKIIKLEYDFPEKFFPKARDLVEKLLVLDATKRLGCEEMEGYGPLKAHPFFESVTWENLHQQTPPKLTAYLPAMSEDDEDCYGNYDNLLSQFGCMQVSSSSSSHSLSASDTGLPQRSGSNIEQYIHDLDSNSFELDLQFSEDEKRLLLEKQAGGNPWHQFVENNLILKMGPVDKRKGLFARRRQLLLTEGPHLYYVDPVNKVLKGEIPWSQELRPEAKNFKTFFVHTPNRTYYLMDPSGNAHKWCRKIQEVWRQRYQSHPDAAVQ

[4] = molecular target: T2, PDK1; conditions: ITC; cited from earlier work
[5] = system: AMPK; conditions: cited from earlier work
[6] = system: K562 cells; experiment: K562 cell viability; assay type: cell-based
[7] = system: Z-138 cells; experiment: Z-138 cell viability; assay type: cell-based; conditions: FIGS. 67-71
[8] = system: Z-138 cells; experiment: Z-138 cell viability; assay type: cell-based
From the text: Since PKC phosphorylates membrane-associated BTK with the C1 domain buried in the lipid bilayer, [5] Applicants aimed to characterize PHICS-mediated BTK phosphorylation by PKC in vitro in the absence of lipid bilayer. […] PEG4 linker, and benzolactam (FIG. 73A). […] One of the modified residues (T410) is located close to the ATP binding pocket, whereas other sites (S310, 5323, and 5378) are on the loops of the SH2 domain in BTK. […] To explore the biological consequences of these neo-phosphorylations, Applicants adopted a genetic approach where the phosphorylated Ser/Thr residues were mutated to aspartic acid, a phosphomimetic, and alanine as a control. […] [8] […] The following studies will be focused on further optimization of the anti-cancer potency of BTK and BCR-ABL targeting PKC-based PHICS molecules as well as on the detailed investigation of their mechanism of action.
Applicants assessed the viability of Z-138 cells after introduction of small molecules at various concentrations, see FIGS. 67-71. […]
Applicants found a non-linear dependency on Z-138 cell viability as a function of linker length and composition.

[9] = system: FGFR; experiment: FGFR-FKBP phosphorylation by ABL and FGFR1/mTOR/G-CSF signaling; assay type: cell-based
From the text: Applicants expanded the scope of ABL targets by phosphorylating a receptor tyrosine kinase, FGFR by fusing an FKBP domain to the cytosolic portion of FGFR (FIG. 37).

[10] = system: HER2-Cter-FKBP construct; experiment: Phosphorylation of HER2-FKBP construct by ABL in HEK293 cells; assay type: cell-based; conditions: 15 minutes, pY1221 HER2-specific antibody
[11] = system: HER2-Cter-FKBP; experiment: Phosphorylation of HER2-Cter-FKBP by ABL in transfected HEK293 cells (pY1221 HER2-specific antibody); assay type: cell-based; conditions: 15 minutes of compound treatment, FIG. 74C
[12] = system: ABL myristoyl domain; conditions: cited from earlier work
[13] = molecular target: JNK 2 (Homo sapiens, UniProt P45984); conditions: cited from earlier work
[14] = molecular target: JNK 1 (Homo sapiens, UniProt P45983); conditions: cited from earlier work
[15] = molecular target: T3, Aurora A (Homo sapiens, UniProt O14965); conditions: cited from earlier work; for Ki: read-out: Calculated Ki
T3 sequence (O14965 1-403): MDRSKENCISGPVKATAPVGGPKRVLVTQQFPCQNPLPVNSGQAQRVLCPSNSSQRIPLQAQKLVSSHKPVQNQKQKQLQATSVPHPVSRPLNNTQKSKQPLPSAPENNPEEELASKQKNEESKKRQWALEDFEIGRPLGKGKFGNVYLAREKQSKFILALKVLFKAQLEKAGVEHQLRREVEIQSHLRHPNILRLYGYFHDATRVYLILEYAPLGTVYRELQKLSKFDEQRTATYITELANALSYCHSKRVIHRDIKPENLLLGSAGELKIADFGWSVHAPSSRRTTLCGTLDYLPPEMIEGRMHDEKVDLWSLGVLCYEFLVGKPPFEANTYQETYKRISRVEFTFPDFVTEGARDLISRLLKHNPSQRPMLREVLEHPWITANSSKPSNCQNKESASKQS

[16] = system: HSP90; conditions: cell free assay; cited from earlier work
[17] = molecular target: β2 subunit-containing AMPK (Homo sapiens, UniProt O43741+Q13131); conditions: cited from earlier work
[18] = molecular target: β1 subunit-containing AMPK (Homo sapiens, UniProt Q13131+Q9Y478); conditions: cited from earlier work
Chain of β1 subunit-containing AMPK (Q9Y478 whole entry): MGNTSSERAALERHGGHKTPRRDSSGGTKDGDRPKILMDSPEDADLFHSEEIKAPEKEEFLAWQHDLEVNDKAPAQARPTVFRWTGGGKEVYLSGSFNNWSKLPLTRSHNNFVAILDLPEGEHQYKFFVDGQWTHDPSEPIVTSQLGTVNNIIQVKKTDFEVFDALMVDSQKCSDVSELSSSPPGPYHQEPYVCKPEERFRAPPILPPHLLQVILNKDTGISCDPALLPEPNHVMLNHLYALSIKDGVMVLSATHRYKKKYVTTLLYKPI
Chain of β1 subunit-containing AMPK (Q13131 whole entry): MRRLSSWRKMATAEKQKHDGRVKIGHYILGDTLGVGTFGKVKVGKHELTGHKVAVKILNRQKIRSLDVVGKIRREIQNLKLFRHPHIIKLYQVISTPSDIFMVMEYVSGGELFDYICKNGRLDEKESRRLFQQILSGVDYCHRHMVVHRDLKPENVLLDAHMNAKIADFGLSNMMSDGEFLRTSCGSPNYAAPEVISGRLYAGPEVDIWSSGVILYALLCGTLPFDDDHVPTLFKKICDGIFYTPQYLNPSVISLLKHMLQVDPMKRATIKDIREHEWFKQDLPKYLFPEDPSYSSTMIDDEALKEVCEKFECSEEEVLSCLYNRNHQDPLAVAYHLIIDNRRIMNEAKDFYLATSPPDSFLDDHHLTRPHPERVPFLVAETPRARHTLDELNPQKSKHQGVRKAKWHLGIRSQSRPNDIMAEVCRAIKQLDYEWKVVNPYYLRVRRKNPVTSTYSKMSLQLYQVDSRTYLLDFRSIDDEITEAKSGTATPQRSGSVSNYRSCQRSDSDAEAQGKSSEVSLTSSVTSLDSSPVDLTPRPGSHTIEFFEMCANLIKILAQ
Chain of β1 subunit-containing AMPK (P54619 whole entry partner): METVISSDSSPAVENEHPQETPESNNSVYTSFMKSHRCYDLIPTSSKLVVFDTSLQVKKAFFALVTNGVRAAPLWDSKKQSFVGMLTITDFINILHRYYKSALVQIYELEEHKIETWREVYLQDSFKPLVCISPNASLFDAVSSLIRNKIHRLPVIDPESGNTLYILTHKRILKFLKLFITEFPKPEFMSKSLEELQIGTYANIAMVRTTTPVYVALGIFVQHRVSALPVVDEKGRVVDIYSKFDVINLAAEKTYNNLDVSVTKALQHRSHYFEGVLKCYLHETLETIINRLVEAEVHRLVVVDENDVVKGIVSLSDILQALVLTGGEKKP

Chain of JNK 1 (P45983 whole entry, species assumed): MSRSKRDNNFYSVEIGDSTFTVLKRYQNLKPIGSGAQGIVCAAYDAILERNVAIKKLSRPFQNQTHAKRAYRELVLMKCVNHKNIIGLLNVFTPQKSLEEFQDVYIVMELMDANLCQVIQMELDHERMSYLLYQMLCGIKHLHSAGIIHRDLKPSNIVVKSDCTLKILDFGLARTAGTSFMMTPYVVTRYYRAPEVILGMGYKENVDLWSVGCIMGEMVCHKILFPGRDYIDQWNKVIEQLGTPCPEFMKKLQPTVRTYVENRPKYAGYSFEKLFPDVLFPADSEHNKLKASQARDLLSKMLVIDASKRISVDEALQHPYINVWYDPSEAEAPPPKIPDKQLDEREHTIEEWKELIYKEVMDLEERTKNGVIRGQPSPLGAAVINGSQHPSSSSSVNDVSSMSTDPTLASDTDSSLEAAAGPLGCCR
Chain of JNK 2 (P45984 whole entry, species assumed): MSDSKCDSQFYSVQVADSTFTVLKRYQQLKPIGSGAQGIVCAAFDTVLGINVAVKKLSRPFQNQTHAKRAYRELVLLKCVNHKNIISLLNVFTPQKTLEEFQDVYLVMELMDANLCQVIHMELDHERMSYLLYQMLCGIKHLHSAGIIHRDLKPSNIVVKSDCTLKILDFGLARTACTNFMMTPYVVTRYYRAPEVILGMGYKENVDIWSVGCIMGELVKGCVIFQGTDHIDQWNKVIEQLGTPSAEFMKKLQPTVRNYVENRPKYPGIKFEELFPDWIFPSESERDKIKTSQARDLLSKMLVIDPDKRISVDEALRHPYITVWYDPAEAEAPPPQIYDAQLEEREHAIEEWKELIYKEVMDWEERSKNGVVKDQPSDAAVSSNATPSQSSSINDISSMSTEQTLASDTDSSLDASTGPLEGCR
Chain of β2 subunit-containing AMPK (O43741 whole entry): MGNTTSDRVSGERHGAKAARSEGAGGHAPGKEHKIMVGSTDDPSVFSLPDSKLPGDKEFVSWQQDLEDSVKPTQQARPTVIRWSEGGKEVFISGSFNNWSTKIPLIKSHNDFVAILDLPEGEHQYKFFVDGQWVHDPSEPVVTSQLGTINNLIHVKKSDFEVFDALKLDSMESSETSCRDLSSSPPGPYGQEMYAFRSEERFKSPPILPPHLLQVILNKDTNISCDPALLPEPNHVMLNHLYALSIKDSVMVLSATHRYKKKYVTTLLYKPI
Chain of β2 subunit-containing AMPK (Q13131 whole entry): as the sequence (Q13131 whole entry) above
Chain of β2 subunit-containing AMPK (P54619 whole entry partner): as the sequence (P54619 whole entry partner) above

Compound: O=C(NOCC(O)CO)c1ccc(F)c(F)c1Nc1ccc(I)cc1F (racemic) [Compound 33]
- Sol (pH 6.5) [1]: 147 μg/mL

Compound: CC(C)(C)C1=NN(c2ccc(Br)cc2)C(c2ccc(O)cc2)C1 (stereo not shown) [1c]
- cell-free assay, % inhibition at 62.5 μM [2]: 93.2%
- IC50 ([2]; read-out: cell-free assay, IC50 ± SD): 11.4 ± 1.25 µM

Compound: CC(C)(C)C1=NN(c2ccc(C(F)(F)F)cc2)C(c2ccc(O)cc2)C1 (stereo not shown) [1d]
- cell-free assay, % inhibition at 62.5 μM [2]: 94.2%

Compound: CC(C)c1ccc(N2N=C(C(C)(C)C)CC2c2ccc(O)cc2)cc1 (stereo not shown) [1f]
- cell-free assay, % inhibition at 62.5 μM [2]: 54.9%

Compound: CC(C)(C)C1=NN(c2ccc(C(=O)O)cc2)C(c2ccc(O)cc2)C1 (stereo not shown) [1g]
- cell-free assay, % inhibition at 62.5 μM [2]: 47.9%

Compound: CC(C)(C)C1=NN(c2cccc(F)c2)C(c2ccc(O)cc2)C1 (stereo not shown) [1i]
- cell-free assay, % inhibition at 62.5 μM [2]: 98.1%

Compound: CC(C)(C)C1=NN(c2ccccc2Cl)C(c2ccc(O)cc2)C1 (stereo not shown) [1l]
- cell-free assay, % inhibition at 62.5 μM [2]: 57.1%

Compound: CC(C)(C)C1=NN(c2ccccc2F)C(c2ccc(O)cc2)C1 (stereo not shown) [1m]
- cell-free assay, % inhibition at 62.5 μM [2]: 57.6%

Compound: CC(C)(C)C1=NN(c2ccc(Cl)cc2Cl)C(c2ccc(O)cc2)C1 (stereo not shown) [1n]
- cell-free assay, % inhibition at 62.5 μM [2]: 71.0%

Compound: CC(C)(C)C1=NN(c2ccc(F)cc2F)C(c2ccc(O)cc2)C1 (stereo not shown) [1o]
- cell-free assay, % inhibition at 62.5 μM [2]: 68.0%

Compound: Cc1ccc(N2N=C(C(C)(C)C)CC2c2ccc(O)cc2)c(C)c1 (stereo not shown) [1p]
- cell-free assay, % inhibition at 62.5 μM [2]: 59.9%

Compound: O=C(O)/C=C(/CCc1cccc(Cl)c1)c1ccccc1 [3Z]
- AC50 ([3]; read-out: AC50): 9.5 µM

Compound: O=C(O)/C=C(\CCc1ccc(F)cc1)c1ccccc1 [4E]
- AC50 [3]: n.e.

Compound: O=C(O)/C=C(/CCc1ccc(Br)cc1)c1ccccc1 [5Z]
- AC50 ([3]; read-out: AC50): 9.8 µM
- TΔS [4]: 3.20 kcal/mol
- ΔG [4]: -6.32 kcal/mol
- ΔH [4]: -3.07 kcal/mol
- ΔH/ΔG [4]: 46.6%

Compound: O=C(Nc1nnc(SCc2ccc([N+](=O)[O-])cc2)s1)c1ccccc1Cl [6E]
- AC50 [3]: n.e.

Compound: O=C(O)/C=C(/CCc1ccc(C(F)(F)F)cc1)c1ccccc1 [6Z]
- AC50 ([3]; read-out: AC50): 7.1 µM
- TΔS [4]: 4.79 kcal/mol
- ΔG [4]: -6.73 kcal/mol
- ΔH [4]: -1.84 kcal/mol
- ΔH/ΔG [4]: 26.5%

Compound: Cc1ccc(CC/C(=C\C(=O)O)c2ccccc2)c(Cl)c1 [8E]
- AC50 [3]: n.e.

Compound: CCc1ccc(CC/C(=C\C(=O)O)c2ccccc2)cc1 [10E]
- AC50 [3]: n.e.

Compound: CCc1ccc(CC/C(=C/C(=O)O)c2ccccc2)cc1 [10Z]
- AC50 ([3]; read-out: AC50): > 50 µM

Compound: O=C(O)/C=C(/CCc1ccc2ccccc2c1)c1ccccc1 [12Z]
- AC50 ([3]; read-out: AC50): 6 µM
- TΔS [4]: 1.96 kcal/mol
- ΔG [4]: -6.67 kcal/mol
- ΔH [4]: -4.56 kcal/mol
- ΔH/ΔG [4]: 68.3%

Compound: O=C(O)/C=C(/CCc1c[nH]c2ccccc12)c1ccccc1 [13Z]
- AC50 ([3]; read-out: AC50): 7.6 µM
- TΔS [4]: 2.60 kcal/mol
- ΔG [4]: -6.73 kcal/mol
- ΔH [4]: -4.09 kcal/mol
- ΔH/ΔG [4]: 60.8%

Compound: N#Cc1c(O)c2c(-c3ccc(-c4ccccc4O)cc3)csc2[nH]c1=O [A769662]
- pEC50 [5]: 6.0

Compound: O=C(NOCC(O)CO)c1ccc(F)c(F)c1Nc1ccc(I)cc1F (stereo not shown) [Compound 35]
- Sol (pH 6.5) [1]: 255, μg/mL

Compound: O=C1NC(=O)C(c2cn(-c3ccccc3)nc2-c2ccc(F)cc2)N1 (stereo not shown) [Cpd1]
- EC50 ([6]; unit inferred): ≥ 10 µM
- EC50 ([6]; unit inferred, listed as Cpdl): > 10 µM

Compound: CCCN(Cc1ccc(-c2ccccc2-c2nn[nH]n2)cc1)c1nc2ccccc2s1 [Cpd2]
- EC50 [6]: ~1 µM

Compound: CCCCN(Cc1ccc(-c2ccccc2-c2nn[nH]n2)cc1)c1nc(C)cc(C)n1 [Cpd3]
- EC50 [6]: ~0.31 µM

Compound: C=CC(=O)N1CCC[C@@H](n2nc(-c3ccc(Oc4ccccc4)cc3)c3c(N)ncnc32)C1 [Ibrutinib]
- effect on Z-138 cell viability [7]: did not have any significant effect
- effect on Z-138 cell viability [8]: did not have any significant effect

Compound: O=C(NOC[C@H](O)CO)c1ccc(F)c(F)c1Nc1ccc(I)cc1F [Mirdametinib]
- Sol (pH 6.5) [1]: 190 μg/mL

Compound: CC[C@H](C(=O)N1CCCC[C@H]1C(=O)O[C@@H](CCc1ccc(OC)c(OC)c1)c1cccc(OCC(=O)NCCOCCOCCOCCOCCC(=O)NC2=NN(c3ccc(Cl)c(Cl)c3)CC2)c1)c1cc(OC)c(OC)c(OC)c1 [VS1043]
- FGFR phosphorylation / FGFR1/mTOR/G-CSF signaling [9]: activates FGFR1/mTOR/G-CSF signaling in a dose dependent manner
- phosphorylation of HER2-Cter-FKBP construct [10]: significant phosphorylation
- phosphorylation of HER2-Cter-FKBP construct [11]: significant phosphorylation

Compound: CNCc1ccc(COc2ccc3c(c2)N(C)C(C(C)C)C(=O)NC(CO)C3)cc1 (stereo not shown) [benzolactam]
- effect on Z-138 cell viability [7]: did not have any significant effect
- effect on Z-138 cell viability [8]: did not have any significant effect

Compound: CCCN(Cc1ccc(-c2ccccc2-c2nn[nH]n2)cc1)c1nc2ccccc2s1 [compound 2]
- pIC50 [12]: 6.5

Compound: CCOc1nc(C(=O)NCC2CCN(Cc3sc(-c4ccccc4)nc3C)CC2)cc(N)c1C#N [compound 6]
- IC50 [13]: < 0.0026 µM
- IC50 [14]: < 0.0018 µM

Compound: CNc1ncc2c(n1)N(C1CCC(O)C1)C(=O)N(c1cc(NC(=O)c3ccc(CN4CCN(C)CC4)c(C(F)(F)F)c3)ccc1C)C2 (stereo not shown) [compound 9]
- IC50 [13]: 1.3 µM
- IC50 [14]: 0.97 µM

Compound: O=C(O)c1cc(-c2cccc(F)c2)nc2ccccc12 [compound 26]
- IC50 [15]: 75.9 µM
- Ki [15]: 16.5 µM

Compound: O=C(O)c1cc(-c2cccc(C(F)(F)F)c2)nc2ccccc12 [compound 34]
- IC50 [15]: 26.5 µM
- Ki [15]: 5.7 µM

Compound: Alvespimycin
- IC50 [16]: 0.062 µM

Compound: MT47-100
- pKi as an allosteric inhibitor [17]: 4.6
- pKi as an activator [18]: 5.4

Reference: US20240024490A1, “BIFUNCTIONAL MOLECULES FOR SELECTIVE MODIFICATION OF TARGET SUBSTRATES” (The Broad Institute, Inc., priority 2021, published 2024)
